What all share (type): cell-based
One test addresses T1, mouse P2X4 receptors (Mus musculus, UniProt Q9JJX6).
T1 construct: host or cells: HEK 293 (recombinant, constitutively expressing)
T1 sequence (Q9JJX6 1-388): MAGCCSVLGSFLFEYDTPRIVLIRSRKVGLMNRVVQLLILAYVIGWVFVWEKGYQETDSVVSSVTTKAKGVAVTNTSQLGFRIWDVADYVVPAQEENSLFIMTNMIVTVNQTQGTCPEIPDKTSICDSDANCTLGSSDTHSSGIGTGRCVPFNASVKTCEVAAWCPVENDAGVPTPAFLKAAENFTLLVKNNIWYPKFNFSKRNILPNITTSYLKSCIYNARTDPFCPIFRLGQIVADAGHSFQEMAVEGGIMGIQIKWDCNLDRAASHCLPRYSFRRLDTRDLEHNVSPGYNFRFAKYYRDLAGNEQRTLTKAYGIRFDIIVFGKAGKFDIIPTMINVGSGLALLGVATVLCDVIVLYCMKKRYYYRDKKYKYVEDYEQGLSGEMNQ
In words: Assay B: mouse P2X4 receptor cell line, Fluo8 fluorescence FLIPR (agonist Bz-ATP at EC50). As to conditions: HEK mouse P2X4 cell line, agonist Bz-ATP at EC50, average. As for the experimental part:
The identification of agonists and antagonists of the P2X4 receptor from humans and […] also the quantification of the activity of the compounds of the invention was performed by use of recombinant cell lines. […] The test cell lines constitutively express the mouse or human P2X4 receptors. Stimulation of the receptors with an agonist leads to a conformational change of P2X4 and influx of extracellular calcium ions through the ion channel. The cytoplasmatic calcium transient is detected via the calcium sensitive dye Fluo8 for the mouse P2×4 cell line or in case of the human P2×4 cell line a stably expressed calcium-sensitive photoprotein, mitochondrial photina, which, after reconstitution with the cofactor coelenterazine, emits light in dependence of calcium binding [Bovolenta S, Foti M, Lohmer S, Corazza S., J Biomol Screen. […] The strength of Fluo8 fluorescence signal or photina luminescence signal corresponds to the level of receptor activation. An inhibitor would decrease the signal depending on its potency and concentration.
On the day of the assay medium is exchanged by Fluo8 containing buffer for 30 minutes. In the fluorescence reader (FLIPR) test substances in various concentrations are added for 10 minutes. After baseline measurement the agonist Bz-ATP at EC50 concentration is applied and fluorescence is measured immediately.

Test [1] deals with T2, P2X4 (Homo sapiens, UniProt Q99571).
T2 sequence (Q99571 1-388): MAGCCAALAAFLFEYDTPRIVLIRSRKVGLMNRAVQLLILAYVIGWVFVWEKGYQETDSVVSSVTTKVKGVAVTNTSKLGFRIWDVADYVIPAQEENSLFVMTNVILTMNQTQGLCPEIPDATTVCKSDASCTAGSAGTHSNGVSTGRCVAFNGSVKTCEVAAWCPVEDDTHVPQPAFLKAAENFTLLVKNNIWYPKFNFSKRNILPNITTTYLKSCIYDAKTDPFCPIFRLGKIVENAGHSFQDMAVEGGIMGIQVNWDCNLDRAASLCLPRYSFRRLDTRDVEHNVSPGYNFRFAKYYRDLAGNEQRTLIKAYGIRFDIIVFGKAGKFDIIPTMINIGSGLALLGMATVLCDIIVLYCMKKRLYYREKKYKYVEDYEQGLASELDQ
In words: Assay A: human P2X4 receptor cell line, FLIPR calcium assay (Fluo-8, agonist Bz-ATP at EC80). On the set-up: host or cells: HEK 293 (recombinant, constitutively expressing; with mitochondrial photina in Assay B). As to conditions: HEK human P2X4 cells, Fluo-8 FLIPR; for IC50: Bz-ATP at EC80, average values; for Emax: percentage of maximal inhibition, read-out: human P2X4 Assay A avg Efficacy. In a few lines:
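HEK cells expressing human P2X4 (20,000/well, plated ~20 h earlier) loaded 30 min with 5 μM Fluo-8 in HBSS/HEPES buffer with 1.8 mM CaCl2, 1 mM MgCl2, 2 mM probenecid, pH 7.4. Antagonist preincubated 30 min at room temperature (0.5% DMSO), then Bz-ATP at EC80. Peak fluorescence over 120 s, normalized to DMSO; triplicate IC50 and Hill fits.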

Test [2] has as its target T2, P2X4. In words: Assay B: human P2X4 receptor cell line, mitochondrial photina luminescence (agonist Bz-ATP at EC50). More on the design: host or cells: HEK 293 (recombinant, constitutively expressing; with mitochondrial photina in Assay B). The conditions noted are these: HEK human P2X4 cell line, photina luminescence, agonist Bz-ATP at EC50, average; for Emax: read-out: human P2X4 Assay B avg Efficacy. In a few lines: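 Recombinant cell line constitutively expressing human P2X4 and mitochondrial photina photoprotein, reconstituted with coelenterazine. Receptor stimulated with Bz-ATP at EC50; calcium influx read immediately as luminescence.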

In general, IC50 refers to the concentration that gives 50% inhibition. With `NS(=O)(=O)c1cc(NC(=O)Cc2ccccc2Cl)ccc1Oc1ccc(F)cc1` [Example 012, 2-(2-chlorophenyl)-N-[4-(4-fluorophenoxy)-3-sulfamoylphenyl]acetamide], the IC50 on mouse P2X4 receptors came out at 1.24 µM; at P2X4 [1] it was 0.02 µM; at P2X4 [2], 0.043 µM. The “mouse P2X4 Assay B avg Efficacy” value at mouse P2X4 receptors is 44%. Further, the Emax came out at 70% at P2X4 [1] and 56% on P2X4 [2].

As for `NS(=O)(=O)c1cc(NC(=O)Cc2ccccc2Cl)ccc1Oc1ccccn1` [Example 013, 2-(2-Chlorophenyl)-N-[4-(pyridin-2-yloxy)-3-sulfamoylphenyl]acetamide], at mouse P2X4 receptors, the IC50 was above 16 µM and the “mouse P2X4 Assay B avg Efficacy” value stood at 31%. Also, the Emax at P2X4 [1] amounted to 93%. At P2X4 [2], the Emax worked out at 71%.

Consider `NS(=O)(=O)c1cc(NC(=O)Cc2ccccc2Cl)ccc1Oc1ccccc1` [Example 014, 2-(2-Chlorophenyl)-N-(4-phenoxy-3-sulfamoylphenyl)acetamide], for which, at mouse P2X4 receptors, the IC50 is above 16 µM and the “mouse P2X4 Assay B avg Efficacy” value is given as 25%. The Emax at P2X4 [1] is 85%. Also, on P2X4 [2], the Emax was determined as 70%.

For the molecule `NC(=O)c1cccc(Oc2ccc(NC(=O)Cc3ccccc3Cl)cc2S(N)(=O)=O)c1` [Example 017, 3-(4-{[(2-Chlorophenyl)acetyl]amino}-2-sulfamoylphenoxy)benzamide], on mouse P2X4 receptors, the IC50 worked out at 0.805 µM and the “mouse P2X4 Assay B avg Efficacy” value turned out to be 44%. On P2X4 [1], the IC50 worked out at 0.061 µM and the Emax was determined as 86%. At P2X4 [2], the IC50 was determined as 0.055 µM and the Emax was 65%.

`NS(=O)(=O)c1cc(NC(=O)Cc2ccccc2Cl)ccc1Oc1cncc(Cl)c1` [Example 029, 2-(2-Chlorophenyl)-N-{4-[(5-chloropyridin-3-yl)oxy]-3-sulfamoylphenyl}acetamide]: at mouse P2X4 receptors, the “mouse P2X4 Assay B avg Efficacy” value was 50%.

Consider `NS(=O)(=O)c1cc(NC(=O)Cc2ccccc2Cl)ccc1Oc1cnc(Cl)c(Cl)c1` [Example 036, 2-(2-Chlorophenyl)-N-{4-[(5,6-dichloropyridin-3-yl)oxy]-3-sulfamoylphenyl}acetamide], for which, at mouse P2X4 receptors, the IC50 was above 50 µM and the “mouse P2X4 Assay B avg Efficacy” value is 15%. Besides, on P2X4 [1], the IC50 is 0.106 µM and the Emax was determined as 81%. Also, at P2X4 [2], the IC50 was 0.068 µM and the Emax turned out to be 79%.

For `NS(=O)(=O)c1cc(NC(=O)Cc2ccccc2Cl)ccc1Oc1ccc(-n2ccnc2)cc1` [Example 042, 2-(2-Chlorophenyl)-N-{4-[4-(1H-imidazol-1-yl)phenoxy]-3-sulfamoylphenyl}acetamide], at mouse P2X4 receptors, the IC50 was above 50 µM and the “mouse P2X4 Assay B avg Efficacy” value is recorded as 54%. In addition, at P2X4 [1], the IC50 is 0.241 µM and the Emax turned out to be 89%. In addition, on P2X4 [2], the IC50 was 0.46 µM and the Emax was determined as 90%.

Consider `NS(=O)(=O)c1cc(NC(=O)Cc2cccc(F)c2Cl)ccc1Oc1cccc(Cl)c1` [Example 098, 2-(2-Chloro-3-fluorophenyl)-N-[4-(3-chlorophenoxy)-3-sulfamoylphenyl]acetamide], for which the values for the IC50 on mouse P2X4 receptors, on P2X4 [1] and at P2X4 [2] were 0.387 µM, 0.007 µM and 0.025 µM, respectively. Further, the “mouse P2X4 Assay B avg Efficacy” value at mouse P2X4 receptors is 69%. For the same molecule, the results for the Emax on P2X4 [1] and on P2X4 [2] were 95% and 57%, respectively.

Take `NS(=O)(=O)c1cc(NC(=O)Cc2c(F)cccc2Cl)ccc1Oc1cccc(Cl)c1` [Example 100, 2-(2-Chloro-6-fluorophenyl)-N-[4-(3-chlorophenoxy)-3-sulfamoylphenyl]acetamide]: the “mouse P2X4 Assay B avg Efficacy” value at mouse P2X4 receptors is given as 43%.

As for `NS(=O)(=O)c1cc(NC(=O)Cc2ccccc2)ccc1OCc1ccccc1` [Example 146, N-[4-(Benzyloxy)-3-sulfamoylphenyl]-2-phenylacetamide], on mouse P2X4 receptors, the IC50 was above 50 µM and the “mouse P2X4 Assay B avg Efficacy” value is listed as 7%. In addition, at P2X4 [2], the IC50 was 0.314 µM and the Emax was found to be 71%.

Consider `NS(=O)(=O)c1cc(NC(=O)Cc2ccccn2)ccc1Oc1cccc(Cl)c1` [Example 185, N-[4-(3-Chlorophenoxy)-3-sulfamoylphenyl]-2-(pyridin-2-yl)acetamide], for which, on mouse P2X4 receptors, the IC50 was above 16 µM and the “mouse P2X4 Assay B avg Efficacy” value came to 22%. Moreover, at P2X4 [2], the 50% inhibitory concentration (IC50) was found to be 0.567 µM and the Emax came out at 77%.

As to `NS(=O)(=O)c1cc(NC(=O)Cc2ccccc2Cl)ccc1Oc1cccc(Cl)c1` [Example 187, N-[4-(3-Chlorophenoxy)-3-sulfamoylphenyl]-2-(2-chlorophenyl)acetamide], on mouse P2X4 receptors, the “mouse P2X4 Assay B avg Efficacy” value was 41%.

For `CC(C(=O)Nc1ccc(Oc2cccc(Cl)c2)c(S(N)(=O)=O)c1)c1c(F)cccc1Cl` (stereo not shown) [Example 258, 2-(2-Chloro-6-fluorophenyl)-N-[4-(3-chlorophenoxy)-3-sulfamoylphenyl]propanamide], at mouse P2X4 receptors, the 50% inhibitory concentration (IC50) came to 0.26 µM and the “mouse P2X4 Assay B avg Efficacy” value is listed as 52%. Moreover, at P2X4 [1], the IC50 was 0.779 µM and the Emax was found to be 76%.

Consider `Cc1cc(NC(=O)Cc2ccccc2Cl)cc(S(N)(=O)=O)c1Oc1cccc(Cl)c1` [Example 270, N-[4-(3-Chlorophenoxy)-3-methyl-5-sulfamoylphenyl]-2-(2-chlorophenyl)acetamide], for which, on mouse P2X4 receptors, the IC50 stood at 1.24 µM and the “mouse P2X4 Assay B avg Efficacy” value was determined as 44%. In addition, at P2X4 [1], the IC50 came out at 0.104 µM and the Emax is 94%.

Take `Cc1cc(NC(=O)Cc2ccccc2)cc(S(N)(=O)=O)c1Oc1cccc(Cl)c1` [Example 271, N-[4-(3-Chlorophenoxy)-3-methyl-5-sulfamoylphenyl]-2-phenylacetamide]: on mouse P2X4 receptors, the IC50 was above 16 µM and the “mouse P2X4 Assay B avg Efficacy” value amounted to 31%. In addition, at P2X4 [1], the concentration for half-maximal inhibition (IC50) was 0.081 µM and the Emax came to 84%.

For `COC(=O)c1ccccc1Oc1ccc(NC(=O)Cc2ccccc2Cl)cc1S(N)(=O)=O` [Example 272, Methyl 2-(4-{[(2-chlorophenyl)acetyl]amino}-2-sulfamoylphenoxy)benzoate], at mouse P2X4 receptors, the IC50 was above 16 µM and the “mouse P2X4 Assay B avg Efficacy” value was determined as 25%. At P2X4 [1], the IC50 is 0.019 µM and the Emax came to 73%.

Regarding `COC(=O)c1ccc(Oc2ccc(NC(=O)Cc3ccccc3Cl)cc2S(N)(=O)=O)cc1` [Example 273, Methyl 4-(4-{[(2-chlorophenyl)acetyl]amino}-2-sulfamoylphenoxy)benzoate], on mouse P2X4 receptors, the IC50 was 0.149 µM and the “mouse P2X4 Assay B avg Efficacy” value was 45%. At P2X4 [1], the IC50 stood at 0.018 µM and the Emax was 78%.

As to `CC(C)(O)c1ccccc1Oc1ccc(NC(=O)Cc2ccccc2Cl)cc1S(N)(=O)=O` [Example 275, 2-(2-Chlorophenyl)-N-{4-[2-(2-hydroxypropan-2-yl)phenoxy]-3-sulfamoylphenyl}acetamide], the “mouse P2X4 Assay B avg Efficacy” value at mouse P2X4 receptors was 44%.
